According to US8044025B2 (Research Development Foundation, priority 2000, dated 2011):
Entries after “also recorded” stand apart in the source; their conditions may differ. No end group written: not given here.

Experiments:
[1] = Telemetric gross motor activity after icv peptide; type: in vivo, rat; settings: 1 μg icv, rats, telemetry
Description: (§1) To identify cell groups responsive to central Ucn II administration, and to evaluate the extent to which these may conform to sites of CRF-R2 expression, the induced expression of the immediate-early gene product, Fos, in response; to icv peptide administration was monitored. Adult male Sprague-Dawley rats (250-300 g at start of experiments) and C57 BL/6 mice (25-40 g) were housed in a colony room on a 12:12 light:dark cycle, and with free access to food and water prior to experimentation. For intracerebroventricular (icv) injections, rats were anesthetized with ketamine/xylazine/acepromazine and stereotaxically implanted with a 26 ga guide cannula terminating in the lateral ventricle. For intravenous (iv) administration of peptides, animals were fitted with indwelling jugular venous catheters. Rats that received icv injections were also implanted intra-abdominally with a transmitter to remotely monitor gross activity levels and body temperature (Mini-Mitter). After surgery, animals were allowed to recover for 7 days prior to any experimentation, during which time they were handled daily. […]
In these same subjects, gross motor activity and body temperature were monitored telemetrically (FIG. 10B). […] Core body temperature was also recorded, with each peptide provoking comparably mild (0.5-1° C.) and transient (2 hr) hypothermic responses (data not shown).

[2] = Nocturnal food intake after icv peptide; type: in vivo, rat; settings: 1 μg icv, rats
Description: as §1, with “catheters.” for “catheters. Rats that received icv injections were also implanted intra-abdominally with a transmitter to remotely monitor gross activity levels and body temperature (Mini-Mitter). After surgery, animals were allowed to recover for 7 days prior to any experimentation, during which time they were handled daily.”
To monitor induced patterns of Fos expression, rats were injected at 10 am, either icv or iv with synthetic Ucn II (1, 5 or 10 μg/animal in 2 μl saline for icv injections or 200 μl for iv administration), or vehicle alone, and perfused two hours later. […] Consumption was then measured hourly for 6 hrs and at 12 hrs. Data were analyzed using repeated measures analysis of variance (ANOVA), with the Bonferoni correction for multiple comparisons applied as warranted. […]

CRFR1 [3] = molecular target: T1, CRFR1 (Homo sapiens, UniProt P34998); test: Displacement of 125I-Sauvagine binding, CHO membranes (Example 5)
T1 construct: expressed in transfected cells; host or cells: CHO cells, stably transfected
T1 sequence (P34998 24-415): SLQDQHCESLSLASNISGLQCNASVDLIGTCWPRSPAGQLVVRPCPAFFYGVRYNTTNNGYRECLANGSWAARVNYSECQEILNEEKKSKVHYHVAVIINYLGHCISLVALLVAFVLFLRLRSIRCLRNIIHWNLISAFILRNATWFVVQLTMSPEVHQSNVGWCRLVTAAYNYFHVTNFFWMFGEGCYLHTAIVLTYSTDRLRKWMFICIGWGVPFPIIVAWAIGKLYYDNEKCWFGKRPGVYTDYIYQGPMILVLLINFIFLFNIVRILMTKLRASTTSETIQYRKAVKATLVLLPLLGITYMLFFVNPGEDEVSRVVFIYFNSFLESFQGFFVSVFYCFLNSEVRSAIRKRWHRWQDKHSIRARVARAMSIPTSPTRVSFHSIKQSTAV
Description: (§2) FIGS. 5A and 5B show the human urocortin-related peptide mediated displacement of ^125I-Sauvagine binding to CRFR1 and CRFR2β, respectively. The affinities of Ucn and URP peptides for CRFR1 and CRFR2β_stably expressed in CHO cells were determined by the competitive displacement of the ^125I-Sauvagine.
(§3) Membranes were prepared as described above (29). Binding was performed in 96-well 0.2 μm Durapore plates using the vacuum filtration multiscreen assay system (Millipore). […] Plates were incubated for 1 hour at room temperature, vacuum-filtered, washed twice with binding buffer, and allowed to dry. Individual filters were punched out and counted using a gamma counter.

CRFR2β = test: as above; settings: CRF-R2β versus CRF-R1
Description: as §2, §3

[4] = tested on: rat anterior pituitary cells; test: ACTH secretion from primary rat anterior pituitary cells; type: cell-based; settings: primary cultures of rat anterior pituitary cells
Description: Secreted ACTH was measured using a kit (Nichols Institute Diagnostics).
For pituitary actions, ACTH secretion response to human urocortin-related peptide was measured in primary cultures of rat anterior pituitary cells as described (30). ACTH levels were determined using the ACTH immunoassay kit from Nichols Institute Diagnostics. The rat anterior pituitary cells were treated with either rat urocortin or human urocortin-related peptide and the level of secreted ACTH was measured, using a kit (Nichols Institute Diagnostics).

CRFR1 [5] = molecular target: T1, CRFR1; test: Radioreceptor assay, displacement of 125I-[Tyr0,Glu1,Nle17]-sauvagine, CHO cell membranes (Example 4); settings: 3-6 experiments, range from SD of log10 values, read-out: CRF-R1 Avg. Ki (nM) (Binding)
Description: (§4) The affinity of Ucn II to the CRF-R1 and CRF-R2 receptors was evaluated using a radioreceptor assay. Crude membrane fractions were prepared from CHO cells stably expressing either cloned CRF-R1 or CRF-R2β. Test peptides and the radioligand, ^125I-[Tyr^0, Glu^1, Nle^17]-sauvagine, were diluted in assay buffer (20 mM HEPES, 2 mM EGTA, 0.1% BSA, 10% sucrose, pH 7.6) and combined with the receptor membrane preparations in MAGV microtiter plates (Millipore) pre-coated with 0.1% polyethylene imine. The reaction mixture was incubated for 90 min at room temperature followed by rapid washing twice with assay buffer and filtration. The radioligand complex was quantified by gamma radiation counting. Inhibitory binding constants were determined using Prism software.
(§5) The values were determined from 3-6 independent experiments using stably transfected CHO cells or their membranes for each test peptide. EC50 and Ki values were determined using Prism software. Their log10 values were averaged (γ). The average EC50 or Ki was taken to be 10^γ. The standard deviation of the log10 values was calculated (σ). The ranges given were taken to be: [(10^γ)10^σ or 10^γ/10^σ].

CRF-R2β = molecular target: T2, CRF-R2β (Mus musculus, UniProt Q60748); test: as above; settings: 3-6 experiments, range from SD of log10 values, read-out: CRF-R2 Avg. Ki (nM) (Binding)
T2 construct: expressed in transfected cells; host or cells: CHO cells, stably transfected
Description: as §4, §5

[6] = Body temperature after icv hURP; type: in vivo, rat; settings: 5 μg icv, monitored twelve hours
Description: The effect of human urocortin-related peptide on the body temperature of rats was examined. Cannulas for injection of human urocortin-related peptide were surgically into the right lateral ventricle. Telemeters for the continuous unobtrusive analysis of body temperature were implanted intraabdominally. The animals were allowed a post-surgical recovery period of seven days. During the time, the animals were handled daily to acclimatize the animals to the injection procedure. On the day of injection, baseline temperature was for recorded for three hours. At 6:00 p.m. (the onset of lights out) the animals were injected with either 5 μl of saline or 5 μl of 1 μg/μl human urocortin-related peptide in saline. Body temperature was monitored every five minutes for twelve hours.

Fos expression = test: hURP-stimulated Fos expression in rat brain; type: in vivo; settings: 5 μg icv, rats sacrificed two hours later
Description: Activation of central stress-related cells groups by human urocortin-related peptide was examined by detection of the Fos gene product in the cells following injection with human urocortin-related peptide. Rats were implanted with guide cannulae in a lateral cerebral ventricle seven days prior to experimentation. On the day of testing, the rats were injected with 5 μg synthetic human urocortin-related peptide in 5 μl of sterile saline. The rats were sacrificed two hours later and slides of various brain sections were prepared. The slides were stained by immunoperoxidase localization of Fos-immunoreactivity using a polyclonal serum raised in rabbit against residues 3-16 of the human Fos protein.

CRFR1 [7] = molecular target: T1, CRFR1; test: Accumulation of intracellular cAMP in stably transfected CHO cells; type: cell-based; settings: peptides 20 min at 37° C.
Description: as §5
(§6) This significant selectivity for the type 2 receptor was seen also in receptor activation as measured by accumulation of intracellular cAMP. Stably transfected CHO cells (cultured in DMEM/10% FBS) were plated into 48-well tissue culture dishes (Costar) and allowed to recover for 24 hours. The medium was changed to DMEM/0.1% FBS at least two hours before treatment. The cells were preincubated for 30 min with 0.1 mM 3-isobutyl-1-methylxanthine and then exposed to peptides for 20 min at 37° C. Intracellular cAMP was extracted and measured in duplicate from triplicate wells using a RIA kit (Biomedical Technologies). […] The extremely low affinity of Ucn II for CRF-R1 precluded a determination of its efficacy on this receptor.

CRF-R2 = molecular target: T3, CRF-R2 (Mus musculus, UniProt Q60748); test: as above; type: cell-based; settings: peptides 20 min at 37° C.
T3 construct: expressed in transfected cells; host or cells: CHO cells, stably transfected
Description: as §5, §6

[8] = Food intake after icv hURP; type: in vivo, rat; settings: 5 μg icv
Description: The effect of human urocortin-related peptide on appetite was also examined in rats. Cannulas for injection of human urocortin-related peptide were surgically into the right lateral ventricle and the animals were allowed to recover for seven days. During the time, the animals were handled daily to acclimatize the animals to the injection procedure. On the day of injection, the animals were injected with either 5 μl of saline or 5 μl of 1 μg/μl human urocortin-related peptide in saline. The amount of food eaten by each animal was recorded every hour for six hours and at fourteen hours.

[9] = Gross motor activity after icv hURP; type: in vivo, rat; settings: 5 μg icv, counts over four hours
Description: To determine if human urocortin-related peptide plays a role in the generation of stress response, the effect of human urocortin-related peptide on the gross motor activity of rats was examined. Cannulas were surgically into the right lateral ventricle while telemeters were implanted intraabdominally to allow for continuous monitoring of gross motor activity. The animals were allowed a post-surgical recovery period of seven days. During the time, the animals were handled daily to acclimatize the animals to the injection procedure. On the day of injection, baseline activity was for recorded for four hours. At 6:00 p.m., which was the onset of lights out, the animals received an injection of either 5 μl of saline or 5 μl of saline containing a total of 5 μg of human urocortin-related peptide. Activity counts were summated over a four hour time period.

T2 sequence (Q60748 27-431 isoform Q60748-2 limits assumed): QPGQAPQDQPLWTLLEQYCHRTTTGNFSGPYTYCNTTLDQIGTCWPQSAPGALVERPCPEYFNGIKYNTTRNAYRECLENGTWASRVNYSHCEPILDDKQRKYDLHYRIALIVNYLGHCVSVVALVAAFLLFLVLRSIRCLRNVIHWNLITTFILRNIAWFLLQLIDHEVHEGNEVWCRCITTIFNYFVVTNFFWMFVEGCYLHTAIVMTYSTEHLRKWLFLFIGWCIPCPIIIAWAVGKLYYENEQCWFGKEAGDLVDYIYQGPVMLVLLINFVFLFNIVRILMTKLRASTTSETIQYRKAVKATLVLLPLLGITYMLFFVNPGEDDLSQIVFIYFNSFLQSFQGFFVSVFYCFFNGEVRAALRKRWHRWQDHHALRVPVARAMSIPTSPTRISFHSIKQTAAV
T3 sequence (Q60748 27-431 isoform Q60748-2 limits assumed): as above

Substance | Gross motor activity versus vehicle [1] | Degree of suppression of food intake over the 12 hr interval ([2]; nocturnal phase) | Time post-injection at which food intake is significantly less than saline controls [2] | Ki (CRFR1 [3]; Example 5, FIG. 5, CHO cells, read-out: Disassociation constant (Ki) for CRF-R1) | Ki (CRFR1 [3]; synthesized peptide, as stated in the Summary, read-out: Ki for CRF-R1 (summary statement)) | Specificity for CRF type II receptor relative to urocortin (CRFR2β) | Stimulation of ACTH secretion relative to urocortin ([4]; listed as Human urocortin-related peptide) | Stimulation of ACTH secretion relative to urocortin ([4]; listed as human urocortin-related peptide) | Ki (CRFR1 [5]) | Ki (CRF-R2β) | Body temperature versus saline controls [6] | Fos-immunoreactivity in central stress-related cell groups (Fos expression) | EC50 (CRFR1 [7]) | EC50 (CRF-R2) | Total food consumed versus control ([8]; over fourteen hours) | Food consumed during each time period versus control ([8]; per time period) | Gross motor activity versus saline controls [9]
CRF: 41-amino acid peptide initiating pituitary-adrenal responses to stress; R1-selective agonist (SEEPPISLDLTFHLLREVLEMARAEQLAQQAHSNRKLMEII; ends and bridges not checked; UniProt P06850 154-194, looked up) | significantly more active than vehicle-treated rats; also recorded: significantly elevated | 30% | 4 h |  |  |  |  |  |  |  |  |  |  |  |  |  | 
IVLSLDVPIGLLQILLEQARARAAREQATTNARILARVGHC-NH2 [URP (human)] |  |  |  | 0.078 µM | 0.07 µM | much more specific for the corticotropin releasing factor type II receptor than urocortin | significantly lower potency compared to urocortin or CRF | less sensitive to human urocortin-related peptide than to urocortin | > 100 nM | 0.5 nM | lower body temperatures both immediately and at seven hours after injection | Fos-immunoreactivity was detected | > 100 nM | 0.42 nM | ate significantly less food than control animals | especially ate less food during the first and third hours after injection as well as during the final eight hours of the experiment | No significant difference in gross motor activity
